The term IC50 denotes the concentration that inhibits the measured activity by half.

Where only a bound is given, the exact number is not on record here.

Data on 18 molecules can be found in patent US6710078B2, “5-Substituted-3(2H)-furanones useful for inhibition of farnesyl-protein transferase” (Wyeth Holdings Corporation, priority 2001, dated 2004).

Test [1] concerns the target T1, FPTase (Homo sapiens, UniProt P49354+P49356). Kind of test: in vitro FTase Inhibition Assay, H-Ras as substrate for farnesylation. As to conditions: H-Ras used as substrate for farnesylation. Type of test: biochemical. The protocol:
(§1) Enzyme test procedure: FPTase inhibition in vitro assay was performed according to James, G. L., Brown, M. S., and Goldstein, J. L., Methods in Enzymology, 1995, 255, 38-46; and Garcia, M. A., et al., J. Biol. Chem., 1993, 268,18415-18420.
(§2) Materials—Purified FPTase (Moomaw, J. F. and Casey, P. J., J. Biol. Chem., 1992, 267,17438-17443), purified His6-Ras, inhibitor compounds at 10 mg/ml or 10 mM in 100% DMSO, ^3H-FPP (50,000 dpm/pmol) Amersham, TCA/SDS (6%/2%), TCA (6%), Glass fiber filters ([…]), vacuum manifold or 96 well filtration plates.
(§3) Methods—1. Dilute FPTase inhibitors from stock solutions to 2.5× in 2.5% DMSO, 10 mM DTT, 0.5% octyl-B-glucoside. 2. Solution #1 is added to FPTase reaction in a volume of […]. 3. Standard reaction mix, […], contains 50 mM Tris (7.5),[…], 3 mM MgCl2, 20 mM KCl, 5 mM DTT, 0.2% octyl-B-glucoside, 1% DMSO, […], 10 ng FPTase, and various concentrations of FPTase inhibitors. 4. Incubate for 30-90 min at 25° C. 5. Stop reactions with TCA/SDS (6%/2%), hold at 4° C. for 45-60 min. 6. Filter by manifold or 96 well plate, wash filter 3-5× with TCA (6%). 7. Add scintillant to filters, measure ^3H-FPP incorporation into Ras protein.
(§4) Analysis of Results—Percent inhibition by test compounds is determined by the following:
(§5) (cpm from precipitated Ras with test compounds)−(background cpm)×100=% inhibition.
(§6) (cpm from precipitated Ras without test compounds)−(background cpm)

Test [2] has as its target T1, FPTase. Kind of test: in vitro FTase Inhibition Assay, K-Ras as substrate for farnesylation. The class given is biochemical. As to conditions: K-Ras used as substrate for farnesylation. The protocol: as §1, §2, §3, §4, §5, §6

In the case of `CC(C1=CC(=O)C(C)(c2ccccc2)O1)C(SCC(O)C(O)CS)c1ccsc1` (stereo not shown) [Example 8, 5-(2-{[(2S*3S*)-2,3-Dihydroxy-4-mercaptobutyl]thio}-1-methyl-2-thien-3-ylethyl)-2-methyl-2-phenylfuran-3(2H)-one], the IC50 on FPTase [1] was determined as 500 nM; on FPTase [2], 700 nM. For `CC1(c2ccccc2)OC(CC(SCCS)c2ccsc2)=CC1=O` (stereo not shown) [Example 13, 5-[2-[(2-Mercaptoethyl)thio]-2-(3-thienyl)ethyl]-2-methyl-2-phenylfuran-3(2H)-one], in that order: 180 nM and 1000 nM. For `CC1(c2ccccc2)OC(CC(SCCCCS)c2ccsc2)=CC1=O` (stereo not shown) [Example 9, 5-[2-[(4-Mercaptobutyl)thio]-2-(3-thienyl)ethyl]-2-methyl-2-phenylfuran-3(2H)-one], in that order: 1500 nM and 3700 nM. As for `CC1(c2ccccc2)OC(CC(SCCO)c2ccsc2)=CC1=O` (stereo not shown) [Example 18], the IC50 against FPTase [1] was determined as 550 nM. Same read-out and setting: the figure for `CC1(c2ccccc2)OC(CC(SCCCO)c2ccsc2)=CC1=O` (stereo not shown) [Example 15, 5-[2-[(3-Hydroxypropyl)thio]-2-(3-thienyl)ethyl]-2-methyl-2-phenylfuran-3(2H)-one] is 8300 nM.

On to `CC1(c2ccccc2)OC(CC(SC[C@@H](O)[C@H](O)CS)c2ccsc2)=CC1=O` (relative stereo) [Example 1, 5-(2-{[(2S*,3S*)-2,3-Dihydroxy-4-mercaptobutyl]thio}-2-thien-3-ylethyl)-2-methyl-2-phenylfuran-3(2H)-one], for which the IC50 on FPTase [1] worked out at 60 nM; against FPTase [2], 100 nM. On FPTase [1], `CC1(c2ccccc2)OC(CC(SCC(O)CO)c2ccsc2)=CC1=O` (stereo not shown) [Example 16, 5-[2-[(2,3-Dihydroxypropyl)thio]-2-(3-thienyl)ethyl]-2-methyl-2-phenylfuran-3(2H)-one] gave an IC50 of 5000 nM.

In the case of `CC1(c2ccccc2)OC(CC(SCCCS)c2ccsc2)=CC1=O` (stereo not shown) [Example 11, 5-[2-[(3-Mercaptopropyl)thio]-2-(3-thienyl)ethyl]-2-methyl-2-phenylfuran-3(2H)-one], the IC50 on FPTase [1] came to 60 nM; against FPTase [2], 150 nM. At FPTase [1], `CC1(c2ccccc2)OC(CC(SC[C@H](N)C(=O)O)c2ccsc2)=CC1=O` (stereo partly drawn) [Example 20, (2R)-2-Amino-3-{[2-(5-methyl-4-oxo-5-phenyl-4,5-dihydrofuran-2-yl)-1-thien-3-ylethyl]thio}propanoic acid] gave an IC50 of over 10000 nM. Same read-out and setting: the figure for `CC1(c2ccc(F)cc2)OC(CC(SCCO)c2ccsc2)=CC1=O` (stereo not shown) [Example 19, 2-(4-Fluorophenyl)-5-[2-[(2-hydroxyethyl)thio]-2-(3-thienyl)ethyl]-2-methylfuran-3(2H)-one] is over 10000 nM. At FPTase [1], `CC1(c2ccccc2)OC(CC(SC[C@H](O)[C@H](O)CS)c2ccsc2)=CC1=O` (relative stereo) [Example 2, 5-(2-[[(2R*,3S*)-2,3-Dihydroxy-4-mercaptobutyl]thio]-2-thien-3-ylethyl)-2methyl-2-phenylfuran-3(2H)-one] yielded an IC50 of 190 nM. Regarding `CC1(c2ccccc2)OC(CC(SCCc2cnccn2)c2ccsc2)=CC1=O` (stereo not shown) [Example 17, 2-Methyl-2-phenyl-5-[2-[(2-pyrazin-2-ylethyl)thio]-2-(3-thienyl)ethyl]furan-3(2H)-one], the IC50 on FPTase [1] and against FPTase [2] was over 10000 nM in each case. Take `CC1(c2ccc(F)cc2)OC(CC(SC[C@H](O)[C@@H](O)CS)c2ccsc2)=CC1=O` (stereo partly drawn) [Example 6, 5-(2-{[(2R,3R)-2,3-Dihydroxy-4-mercaptobutyl]thio}-2-thien-3-ylethyl)-2-(4-fluorophenyl)-2-methylfuran-3(2H)-one]: the results for the IC50 against FPTase [1] and against FPTase [2] were 120 nM and 140 nM, respectively.

Take `CC1(c2ccccc2)OC(CC(SCC(S)CO)c2ccsc2)=CC1=O` (stereo not shown) [Example 14, 5-[2-[(3-Hydroxy-2-mercaptopropyl)thio]-2-(3-thienyl)ethyl]-2-methyl-2-phenylfuran-3(2H)-one]: the IC50 amounted to 7200 nM against FPTase [1] and 4500 nM at FPTase [2]. `CC1(c2ccccc2)OC(CC(SC[C@H](O)[C@@H](O)CS)c2ccsc2)=CC1=O` (stereo partly drawn) [Example 3, 5-[2-{[(2R,3R)-2,3-Dihydroxy-4-mercaptobutyl]thio}-2-(3-thienyl)ethyl]-2-methyl-2-phenylfuran-3(2H)-one]: the IC50 against FPTase [1] worked out at 180 nM.

At FPTase [1], `CC1(c2ccccc2)OC(CC(SCCCCCS)c2ccsc2)=CC1=O` (stereo not shown) [Example 12, 5-[2-[(5-Mercaptopentyl)thio]-2-(3-thienyl)ethyl]-2-methyl-2-phenylfuran-3(2H)-one] yielded an IC50 of 8000 nM. On to `CC1(c2ccccc2)OC(CC(SCCCCO)c2ccsc2)=CC1=O` (stereo not shown) [Example 10, 5-[2-[(4-Hydroxybutyl)thio]-2-(3-thienyl)ethyl]-2-methyl-2-phenylfuran-3(2H)-one], for which the IC50 is 5500 nM on FPTase [1] and over 10000 nM against FPTase [2]. The matching figures for `CC1(c2ccccc2)OC(CC(SC[C@@H](O)[C@H](O)CS)c2ccccc2[N+](=O)[O-])=CC1=O` (relative stereo) [Example 7, 5-[2-{[(2S*,3S*)-2,3-Dihydroxy-4-mercaptobutyl]thio}-2-(2-nitrophenyl)ethyl]-2-methyl-2-phenylfuran-3(2H)-one]: 320 nM and 90 nM.
